Experimental data taken from patent publication US20140128605A1, “CRYSTALS OF GLYCINE DERIVATIVE AND PHARMACEUTICAL USE THEREOF” (Toray Industries, Inc., priority 2011, published 2014).

Experiments:
Type in all cases: physicochemical
[1] = Evaluation of moisture absorption (equilibrium moisture regain); details: for Weight increase: relative humidity increased from 5% to 95%, 25° C.
Procedure: • Sample Amount: 5 to 12 mg • Measuring Temperature: 25° C. • Equilibrium Weight/time: 0.01 wt %/5 minutes • Maximum Equilibration Time: 180 minutes • Measurement Range: 5% relative humidity-95% relative humidity-5% relative humidity • Measurement Interval: 5% relative humidity
To evaluate whether the crystal form changes or not, the powder X-ray diffraction measurement was carried out for each crystal of Form A, Form B, Form C, Form D and Form E (hydrate) obtained after the evaluation test of moisture absorption. Only for the Form A crystal, the measurement range (2θ) of the powder X-ray diffraction measurement was changed to 2 to 35°, and the measurement was carried out at 25° C., 90% relative humidity. A humidity generator (HUM-1A; manufactured by Rigaku) was used to control humidity.

[2] = Evaluation of solid-state stability (60° C., four weeks, air-tightly); details: for Purity [%] Initial value / Purity [%] After 4 weeks: HPLC; for Purity [%] Initial value: before storage; for Purity [%] After 4 weeks / Decomposition product increased by not less than 0.15% after 4 weeks / Crystal form after 4 weeks: stored air-tightly at 60° C. for four weeks; for Crystal form after 4 weeks: powder X-ray diffraction and TG-DTA
Procedure: The amorphous form, and the crystals of Form A, Form B, Form C, Form D and Form E (hydrate) of the subject compound were stored air-tightly at 60° C. for four weeks, and the purities thereof before and after the storage were measured by high performance liquid chromatography (hereinafter referred to as “HPLC”) under the following conditions. The powder X-ray diffraction measurement and TG-DTA were carried out to evaluate whether the crystal forms were changed or not due to the storage. Aqueous sodium dihydrogen phosphate solution in a concentration of 20 mmol/L (hereinafter referred to as “aqueous SDP solution”) used to prepare a mobile phase of HPLC was prepared by adding distilled water (3 L) to weighed sodium dihydrogen phosphate dihydrate (9.36 g) and stirring the resulting solution to dissolve the dihydrate. An analytical sample of HPLC was prepared by weighing and adding each crystal (1.75 mg) of the subject compound to a 10-mL measuring flask respectively; adding acetonitrile (2 mL) thereto to dissolve the crystal; and then adding aqueous SDP solution thereto to a total volume of 10 mL.
• Detection Wavelength: 210 nm • Column: YMC-Pack Pro C18 AS-303 • Mobile Phase A: aqueous SDP solution/acetonitrile=80:20 (v/v) • Mobile Phase B: acetonitrile/aqueous SDP solution=70:30 (v/v) • Composition of Mobile Phase B: 0 to 60 minutes: 0→100% • 60 to 65 minutes: 100%, • 65 to 66 minutes: 100→0%, • 66 to 75 minutes: 0% • Flow rate: 1.0 mL/min • Column Temperature: 40° C. • Amount of Injected Sample: 20 μL

[3] = Storage stability test (accelerated testing) of Form C crystal; details: 40° C., 75% relative humidity; for Purity [%] Initial value: HPLC, before storage, 6 months column
Procedure: The Form C crystals of the subject compound were stored under acceleration conditions (40° C., 75% relative humidity) air-tightly or under open conditions for six months, and the purities of the crystals before and after the storage were measured by HPLC under conditions below. The powder X-ray diffraction measurement and TG-DTA were carried out to evaluate whether the crystal form was changed or not due to storage.
Phosphate buffer in a concentration of 20 mmol/L (pH 3.9) (hereinafter referred to as “Buffer X”) used to prepare a mobile phase of HPLC was prepared by adding 20 mmol/L of aqueous phosphoric acid solution to 20 mmol/L of aqueous potassium dihydrogen phosphate solution. 20 mmol/L of the aqueous potassium dihydrogen phosphate solution was prepared by adding the weighed potassium dihydrogen phosphate (8.2 g) to distilled water (3 L), and stirring the resulting solution to dissolve the phosphate, and 20 mmol/L of the aqueous phosphoric acid solution was prepared by adding phosphoric acid (1.4 mL) to distilled water (1 L), and mixing the resulting solution under stirring.
Phosphate buffer in a concentration of 20 mmol/L (pH 7.0) (hereinafter referred to as “Buffer Y”) used to prepare an analytical sample of HPLC was prepared by adding 20 mmol/L of aqueous phosphoric acid solution to 20 mmol/L of aqueous dipotassium hydrogen phosphate solution. 20 mmol/L of aqueous dipotassium hydrogen phosphate solution was prepared by adding the weighed dipotassium hydrogen phosphate (3.5 g) to distilled water (1 L), and stirring the resulting solution.
Further, the analytical sample of HPLC was prepared by weighing and adding the Form C crystals of the subject compound (10 mg) to a 50-mL measuring flask, and adding a mixture of Buffer Y and acetonitrile at a ratio of 80:20 to a total amount of 50 mL.
• Detection Wavelength: 210 nm • Column: YMC-Pack Pro C18 • AS12S05-2546WT • Mobile Phase A: buffer X/acetonitrile=80:20 (v/v) • Mobile Phase B: acetonitrile/buffer X=70:30 (v/v) • Composition of Mobile Phase B: 0 to 80 minutes: 0→100% • 80 to 85 minutes: 100% • 85 to 86 minutes: 100→0% • 86 to 95 minutes: 0% • Flow Rate: 1.0 mL/min • Column Temperature: 40° C. • Amount of Injected Sample: 20 μL

[4] = Physical stability of crystal form in solvents; details: solvents (e.g., toluene, methanol, 2-propanol)
[5] = Crystal form after milling (powder X-ray diffraction, TG-DTA); details: pin milled and jet milled products

| Structure (SMILES) | Change in crystal form ([1]; powder X-ray diffraction after the moisture absorption test) | Weight increase [1] [%] | Purity [%] Initial value [2] [%] | Purity [%] After 4 weeks [2] [%] | Decomposition product increased by not less than 0.15% after 4 weeks [2] | Crystal form after 4 weeks [2] | Crystal form after 6 months ([3]; air-tightly) | Decomposition product increased by not less than 0.15% after 6 months ([3]; air-tightly) | Purity [%] After 6 months ([3]; air-tightly) [%] | Crystal form after 6 months ([3]; open condition) | Decomposition product increased by not less than 0.15% after 6 months ([3]; open condition) | Purity [%] After 6 months ([3]; open condition) [%] | Purity [%] Initial value ([3]; air-tightly) [%] | Purity [%] Initial value ([3]; open condition) [%] | Transfer of crystal form in solvents [4] | Change in the crystal form due to milling [5] |
| --- | --- | --- | --- | --- | --- | --- | --- | --- | --- | --- | --- | --- | --- | --- | --- | --- |
| CN(c1ccc(/C=C/C[C@H](NC(=O)c2c(Cl)cccc2Cl)C(=O)O)cc1)c1ncccn1 [Form A, (S,E)-2-(2,6-dichlorobenzamido)-5-[4-(methyl-pyrimidin-2-ylamino)phenyl]pent-4-enoic acid] | changed^2) | 3.4 | 97.3 | 97.5 | nothing | Form B |  |  |  |  |  |  |  |  |  |  |
| CN(c1ccc(/C=C/C[C@H](NC(=O)c2c(Cl)cccc2Cl)C(=O)O)cc1)c1ncccn1 [Form D, (S,E)-2-(2,6-dichlorobenzamido)-5-[4-(methyl-pyrimidin-2-ylamino)phenyl]pent-4-enoic acid] |  | 1.0 | 98.0 | 98.0 | nothing | Mixed crystals^2) |  |  |  |  |  |  |  |  |  |  |
| CN(c1ccc(/C=C/C[C@H](NC(=O)c2c(Cl)cccc2Cl)C(=O)O)cc1)c1ncccn1 [Amorphous, (S,E)-2-(2,6-dichlorobenzamido)-5-[4-(methyl-pyrimidin-2-ylamino)phenyl]pent-4-enoic acid] |  |  | 95.8 | 92.0 | 8 different | Amorphous |  |  |  |  |  |  |  |  |  |  |
| CN(c1ccc(/C=C/C[C@H](NC(=O)c2c(Cl)cccc2Cl)C(=O)O)cc1)c1ncccn1 [Form E, (S,E)-2-(2,6-dichlorobenzamido)-5-[4-(methyl-pyrimidin-2-ylamino)phenyl]pent-4-enoic acid] |  | 0.4 | 96.6 | 96.9 | nothing | Form E |  |  |  |  |  |  |  |  |  |  |
| CN(c1ccc(/C=C/C[C@H](NC(=O)c2c(Cl)cccc2Cl)C(=O)O)cc1)c1ncccn1 [Form B, (S,E)-2-(2,6-dichlorobenzamido)-5-[4-(methyl-pyrimidin-2-ylamino)phenyl]pent-4-enoic acid] |  | 1.9 | 99.8 | 99.8 | nothing | Form B |  |  |  |  |  |  |  |  |  |  |
| CN(c1ccc(/C=C/C[C@H](NC(=O)c2c(Cl)cccc2Cl)C(=O)O)cc1)c1ncccn1 [Form C, (S,E)-2-(2,6-dichlorobenzamido)-5-[4-(methyl-pyrimidin-2-ylamino)phenyl]pent-4-enoic acid] |  |  | 98.9 | 98.9 | nothing | Form C | Form C | Nothing | 99.5 | Form C | Nothing | 99.4 | 99.5 | 99.5 | not transferred to the another form | no change in the crystal form |
